Test results published in US6849612B2, “Oligonucleotide modulation of cell adhesion” (ISIS Pharmaceuticals, Inc., priority 1993, dated 2005).
Strand notation (5' to 3'): a small letter for the sugar, then the base; units joined by * are phosphorothioate-linked, units joined directly phosphodiester-linked; [ ] holds rarer units or linkages, { } end groups; capitals alone tell only the bases. d = 2'-deoxy (DNA)

Assays:
[1] = system: C8161 human melanoma cells; test: Experimental metastasis assay of oligonucleotide-treated C8161 cells in athymic nude mice; format: in vivo
Procedure: To evaluate the role of ICAM-1 in metastasis, experimental metastasis assays were performed by injecting 1×10^5 C8161 cells into the lateral tail vein of athymic nude mice. […] Assoc. Cancer Res. 1990, 13, 353].
After 4 weeks, mice were sacrificed, organs were fixed in Bouin's fixative and metastatic lesions on lungs were scored with the aid of a dissecting microscope. Four-week-old female athymic nude mice (Harlan Sprague Dawley) were used. Animals were maintained under the guidelines of the NIH. Groups of 4-8 mice each were tested in experimental metastasis assays.
Treatment of C8161 cells with antisense oligonucleotides ISIS 1570 and ISIS 2302, complementary to ICAM-1, was performed in the presence of the cationic lipid, Lipofectin (Gibco/BRL, Gaithersburg, Md.). Antisense oligonucleotides were synthesized as described in Example 3. Cells were seeded in 60 mm tissue culture dishes at 10^6 cells/ml and incubated at 37 °C for 3 days, washed with OPTI-MEM (Gibco/BRL) 3 times and 100 μl of OPTI-MEM medium was added to each well. 0.5 μM oligonucleotide and 15 μg/ml lipofectin were mixed at room temperature for 15 minutes. 25 μl of the oligonucleotide-lipofectin mixture was added to the appropriate dishes and incubated at 37° C. for 4 hours. The oligonucleotide-lipofectin mixture was removed and replaced with DME-F12 medium containing 10% fetal calf serum. After 4 hours, 500 U/ml TNF-α was added to the appropriate wells and incubated for 18 hours at which time cells were removed from the plates, counted and injected into athymic nude mice.

ICAM-1 [2] = test: ELISA of ICAM-1 cell surface expression in oligonucleotide-pretreated, cytokine-stimulated HUVEC; format: cell-based, human
[3] = system: adherence of HL-60 cells to human umbilical vein endothelial cells; test: Cell adherence assay: DMSO differentiated HL-60 cells to TNF treated HUVEC; format: cell-based
Procedure: Target cells are grown as a monolayer in a multiwell plate, treated with oligonucleotide followed by cytokine. The adhering cells are then added to the monolayer cells and incubated for 30 to 60 minutes at 37° C. and washed to remove nonadhering cells. Cells adhering to the monolayer may be determined either by directly counting the adhering cells or prelabeling the cells with a radioisotope such as ^51Cr and quantitating the radioactivity associated with the monolayer as described. Dustin and Springer, J. Cell Biol. 1988, 107, 321-331. Antisense oligonucleotides may target either ICAM-1, VCAM-1 or ELAM-1 in the assay.
An example of the effects of antisense oligonucleotides targeting ICAM-1 mRNA on the adherence of DMSO differentiated HL-60 cells to tumor necrosis factor treated human umbilical vein endothelial cells is shown in FIG. 7. Human umbilical vein endothelial cells were grown to 80% confluence in 12 well plates. The cells were treated with 2 μM oligonucleotide diluted in Opti-MEM containing 8 μM DOTMA for 4 hours at 37° C. The medium was removed and replaced with fresh endothelial cell growth medium (EGM-UV) containing 2 μM of the indicated oligonucleotide and incubated 4 hours at 37° C. Tumor necrosis factor, 1 ng/ml, was added to cells as indicated and cells incubated for an additional 19 hours. The cells were washed once with EGM-UV and 1.6×10^6 HL-60 cells differentiated for 4 days with 1.3% DMSO added. The cells were allowed to attach for 1 hour at 37° C. and gently washed 4 times with Dulbecco's phosphate-buffered saline (D-PBS) warmed to 37° C. Adherent cells were detached from the monolayer by addition of 0.25 ml of cold (4EC) phosphate-buffered saline containing 5 mM EDTA and incubated on ice for 5 minutes. The number of cells removed by treatment with EDTA was determined by counting with a hemocytometer. Endothelial cells detached from the monolayer by EDTA treatment could easily be distinguished from HL-60 cells by morphological differences. In the absence of tumor necrosis factor, 3% of the HL-60 cells bound to the endothelial cells. Treatment of the endothelial cell monolayer with 1 ng/ml tumor necrosis factor increased the number of adhering cells to 59% of total cells added (FIG. 7).
Human umbilical vein endothelial (HUVEC) cells were grown and treated with oligonucleotides as in Example 4. Cells were treated with either ISIS 1939, ISIS 1940, or the control oligonucleotide ISIS 1821 for 4 hours, then stimulated with TNF-α for 20 hours. Basal HUVEC minimally bound HL-60 cells, while TNF-stimulated HUVEC bound 19% of the total cells added. Pretreatment of the HUVEC monolayer with 0.3 ìM ISIS 1939 reduced the adherence of HL-60 cells to basal levels, as shown in FIG. 11.

ICAM-1 [4] = test: ELISA screening for ICAM-1 expression in interleukin-1β-stimulated cells (HUVEC and A549); format: cell-based, human; details: for inhibition of ICAM-1 expression, relative activity in words: interleukin-1β-stimulated cells, two cell lines (HUVEC, A549); for inhibition of ICAM-1 expression after premixing with respective sense strand: premixed/prehybridized at equal molar concentrations with sense strand (ISIS 1575 or ISIS 2115)
[5] = system: complementary DNA sequences (ICAM-1 target sites); test: Tm of oligonucleotide hybridized to complementary DNA; format: binding, human; details: as E23
Source text: The antisense oligonucleotides (synthesized as phosphorothioates) were hybridized to their complementary DNA sequences (synthesized as phosphodiesters). […] Tm's and free energies of duplex formation were obtained from fits of data to a two-state model with linear sloping baselines ([…]. and D. H. […] Results are averages of at least three experiments.

Substance	No. Lung Metastases per Mouse (Mean ± S.E.M.) ([1]; C8161 cells treated with 0.5 μM oligonucleotide + Lipofectin + TNF-α, Lipofectin + TNF-α 81 ± 8)	No. Lung Metastases per Mouse (Mean ± S.E.M.) ([1]; C8161 cells treated with 0.5 μM oligonucleotide + Lipofectin, no TNF-α, Lipofectin only 64 ± 13)	inhibition of ICAM-1 expression (ICAM-1 [2]; 0.1 μM oligonucleotide, HUVEC, 8 μM DOTMA, interleukin-1β 5 units/ml) [%]	inhibition of ICAM-1 expression (ICAM-1 [2]; 1 μM oligonucleotide, HUVEC, 8 μM DOTMA, interleukin-1β 5 units/ml) [%]	inhibition of ICAM-1 expression (ICAM-1 [2]; 1 μM, HUVEC stimulated with increasing concentrations of tumor necrosis factor and interleukin-1)	effect on ICAM-1 expression after prehybridization to the sense strand (ICAM-1 [2]; COMPOUND 2 prehybridized to COMPOUND 3 prior to addition to the cells)	HL-60 cells adhering, % of total cells added ([3]; 2 μM oligonucleotide, HUVEC treated with 1 ng/ml tumor necrosis factor, control 59%) [%]	number of HL-60 cells adhering to the monolayer ([3]; 2 μM oligonucleotide, absence of tumor necrosis factor treatment)	inhibition of ICAM-1 expression, relative activity in words (ICAM-1 [4])	inhibition of ICAM-1 expression after premixing with respective sense strand (ICAM-1 [4])	Tm relative to other oligonucleotides [5]	adherence of HL-60 cells ([3]; 0.3 μM oligonucleotide, TNF-α stimulated HUVEC (control bound 19%))
ISIS 1570: phosphorothioate, human ICAM-1 AUG Codon (64-81), SEQ ID NO 1, TGGGAGCCATAGCGAGGC (antisense dT*dG*dG*dG*dA*dG*dC*dC*dA*dT*dA*dG*dC*dG*dA*dG*dG*dC)	49 ± 6	38 ± 15	70	90	inhibits expression of ICAM-1	attenuated	17	did not change the number of cells adhering	most active	blocked the effects of ISIS 1570		
ISIS 1939: P=S, human ICAM-1 3′-Untranslated (1952-1971), SEQ ID NO 15, CCCCCACCACTTCCCCTCTC (antisense dC*dC*dC*dC*dC*dA*dC*dC*dA*dC*dT*dT*dC*dC*dC*dC*dT*dC*dT*dC)									most active	completely blocked	lower than that of the majority of the other oligonucleotides	basal levels
